Assay: cells
Settings: Mus musculus, B16-4A5, 72 h, read-out: INH
Description: Inhibition of theophylline-stimulated melanogenesis in mouse B16-4A5 cells at 30 uM after 72 hrs

Row | SMILES | inhibition at 30 µM
1 | COc1cc(C(=O)CCO)ccc1O | < 15.4%
2 | COc1cc(C(=O)CO)ccc1O | < 15.4%
3 | COc1cc([C@H]2Oc3cc(O)cc(O)c3C(=O)[C@@H]2O)ccc1O | 16.2%
4 | COc1cc([C@@H](O)[C@@H](CO)c2ccc(O)c(OC)c2)ccc1O (relative stereo) | 27.3%
5 | COc1cc([C@H](O)[C@@H](CO)c2ccc(O)c(OC)c2)ccc1O (relative stereo) | < 15.4%
6 | COc1cc(C(=O)C(O)CO)ccc1O (single isomer, unassigned; (+)) | 25.8%
7 | O=C1c2c(O)cc(O)cc2O[C@@H](c2ccc(O)c(O)c2)[C@H]1O [(+)-EPITAXIFOLIN] | 13.7%
8 | O=C1c2c(O)cc(O)cc2O[C@H](c2ccc(O)c(O)c2)[C@H]1O [(+)-TAXIFOLIN] | 21.7%
9 | COc1cc(C(=O)[C@H](CO)c2ccc(O)c(OC)c2)ccc1O [(-)-EVOFOLIN B] | 23.5%
10 | O=C1C[C@@H](c2ccc(O)cc2)Oc2c1c(O)cc1oc3cc(O)c(O)cc3c21 [ANASTATIN B] | 40.3%
11 | COc1cc(C(C)=O)ccc1O [APOCYNIN] | 20.2%
12 | O=C1c2c(O)cc(O)cc2O[C@H](c2ccc(O)cc2)[C@H]1O [DIHYDROKAEMPFEROL] | 7%
13 | COc1cc(/C=C/C(=O)O)ccc1O [FERULATE] | < 15.4%
14 | COc1cc([C@@H]2Oc3c(O)cc(C=O)cc3[C@H]2CO)ccc1O [HIEROCHIN C] | 44.6%
15 | COc1cc(C[C@H]2CO[C@H](c3ccc(O)c(OC)c3)[C@H]2CO)ccc1O [LARICIRESINOL] | < 15.4%
16 | O=C1C[C@@H](c2ccc(O)cc2)Oc2cc(O)cc(O)c21 [NARINGENIN] | 16.9%
17 | O=C(O)c1ccc(O)cc1 [PARABEN] | < 15.4%
18 | O=C(O)c1ccc(O)c(O)c1 [PROTOCATECHUIC ACID] | < 15.4%
19 | C[C@@H]1O[C@@H](OC[C@H]2O[C@@H](Oc3c(-c4ccc(O)c(O)c4)oc4cc(O)cc(O)c4c3=O)[C@H](O)[C@@H](O)[C@@H]2O)[C@H](O)[C@H](O)[C@H]1O [RUTIN] | 5.2%
20 | COc1cc(C=O)ccc1O [VANILLIN] | < 15.4%
21 | COc1ccc(C(=O)O)cc1 [p-ANISIC ACID] | < 15.4%

Assay: cells
Settings: Mus musculus, B16-4A5, 72 h, read-out: INH
Remark: another data set of the same source
Description: Inhibition of theophylline-stimulated melanogenesis in mouse B16-4A5 cells at 3 uM after 72 hrs

Row | SMILES | inhibition at 3 µM
22 | COc1cc([C@H]2Oc3cc(O)cc(O)c3C(=O)[C@@H]2O)ccc1O | 8%
23 | COc1cc([C@@H](O)[C@@H](CO)c2ccc(O)c(OC)c2)ccc1O (relative stereo) | 20.8%
24 | COc1cc(C(=O)C(O)CO)ccc1O (single isomer, unassigned; (+)) | 18.1%
25 | O=C1c2c(O)cc(O)cc2O[C@@H](c2ccc(O)c(O)c2)[C@H]1O [(+)-EPITAXIFOLIN] | 6.8%
26 | O=C1c2c(O)cc(O)cc2O[C@H](c2ccc(O)c(O)c2)[C@H]1O [(+)-TAXIFOLIN] | 3.1%
27 | COc1cc(C(=O)[C@H](CO)c2ccc(O)c(OC)c2)ccc1O [(-)-EVOFOLIN B] | 15%
28 | O=C1C[C@@H](c2ccc(O)cc2)Oc2c1c(O)cc1oc3cc(O)c(O)cc3c21 [ANASTATIN B] | 10.1%
29 | COc1cc(C(C)=O)ccc1O [APOCYNIN] | 17.5%
30 | O=C1c2c(O)cc(O)cc2O[C@H](c2ccc(O)cc2)[C@H]1O [DIHYDROKAEMPFEROL] | 14.4%
31 | COc1cc([C@@H]2Oc3c(O)cc(C=O)cc3[C@H]2CO)ccc1O [HIEROCHIN C] | 6.6%
32 | O=C1C[C@@H](c2ccc(O)cc2)Oc2cc(O)cc(O)c21 [NARINGENIN] | 13.9%
33 | C[C@@H]1O[C@@H](OC[C@H]2O[C@@H](Oc3c(-c4ccc(O)c(O)c4)oc4cc(O)cc(O)c4c3=O)[C@H](O)[C@@H](O)[C@@H]2O)[C@H](O)[C@H](O)[C@H]1O [RUTIN] | 3.1%

Assay: Toxicity in mouse B16-4A5 cells assessed as inhibition of cell proliferation at 30 uM in presence of 1 mM theophylline after 72 hrs by WST8 dye reduction assay
Format: cell-based
Settings: not given

Row | SMILES | inhibition at 72 h, 30 µM
34 | COc1cc(C(=O)CCO)ccc1O | < 8.8%
35 | COc1cc(C(=O)CO)ccc1O | < 8.8%
36 | COc1cc([C@H]2Oc3cc(O)cc(O)c3C(=O)[C@@H]2O)ccc1O | < 8.8%
37 | COc1cc([C@@H](O)[C@@H](CO)c2ccc(O)c(OC)c2)ccc1O (relative stereo) | < 8.8%
38 | COc1cc([C@H](O)[C@@H](CO)c2ccc(O)c(OC)c2)ccc1O (relative stereo) | < 8.8%
39 | COc1cc(C(=O)C(O)CO)ccc1O (single isomer, unassigned; (+)) | < 8.8%
40 | O=C1c2c(O)cc(O)cc2O[C@@H](c2ccc(O)c(O)c2)[C@H]1O [(+)-EPITAXIFOLIN] | < 8.8%
41 | O=C1c2c(O)cc(O)cc2O[C@H](c2ccc(O)c(O)c2)[C@H]1O [(+)-TAXIFOLIN] | < 8.8%
42 | COc1cc(C(=O)[C@H](CO)c2ccc(O)c(OC)c2)ccc1O [(-)-EVOFOLIN B] | < 8.8%
43 | O=C1C[C@@H](c2ccc(O)cc2)Oc2c1c(O)cc1oc3cc(O)c(O)cc3c21 [ANASTATIN B] | < 8.8%
44 | COc1cc(C(C)=O)ccc1O [APOCYNIN] | < 8.8%
45 | O=C1c2c(O)cc(O)cc2O[C@H](c2ccc(O)cc2)[C@H]1O [DIHYDROKAEMPFEROL] | < 8.8%
46 | COc1cc(/C=C/C(=O)O)ccc1O [FERULATE] | < 8.8%
47 | COc1cc([C@@H]2Oc3c(O)cc(C=O)cc3[C@H]2CO)ccc1O [HIEROCHIN C] | < 8.8%
48 | COc1cc(C[C@H]2CO[C@H](c3ccc(O)c(OC)c3)[C@H]2CO)ccc1O [LARICIRESINOL] | < 8.8%
49 | O=C1C[C@@H](c2ccc(O)cc2)Oc2cc(O)cc(O)c21 [NARINGENIN] | < 8.8%
50 | O=C(O)c1ccc(O)cc1 [PARABEN] | < 8.8%
51 | O=C(O)c1ccc(O)c(O)c1 [PROTOCATECHUIC ACID] | < 8.8%
52 | C[C@@H]1O[C@@H](OC[C@H]2O[C@@H](Oc3c(-c4ccc(O)c(O)c4)oc4cc(O)cc(O)c4c3=O)[C@H](O)[C@@H](O)[C@@H]2O)[C@H](O)[C@H](O)[C@H]1O [RUTIN] | < 8.8%
53 | COc1cc(C=O)ccc1O [VANILLIN] | < 8.8%
54 | COc1ccc(C(=O)O)cc1 [p-ANISIC ACID] | < 8.8%

Assay: cells
Settings: Mus musculus, B16-4A5, 72 h, read-out: INH
Remark: another data set of the same source
Description: Inhibition of theophylline-stimulated melanogenesis in mouse B16-4A5 cells at 1 uM after 72 hrs

Row | SMILES | inhibition at 1 µM
55 | COc1cc([C@H]2Oc3cc(O)cc(O)c3C(=O)[C@@H]2O)ccc1O | 9.8%
56 | COc1cc([C@@H](O)[C@@H](CO)c2ccc(O)c(OC)c2)ccc1O (relative stereo) | 14.9%
57 | COc1cc(C(=O)C(O)CO)ccc1O (single isomer, unassigned; (+)) | 16.5%
58 | O=C1c2c(O)cc(O)cc2O[C@@H](c2ccc(O)c(O)c2)[C@H]1O [(+)-EPITAXIFOLIN] | 3.5%
59 | O=C1c2c(O)cc(O)cc2O[C@H](c2ccc(O)c(O)c2)[C@H]1O [(+)-TAXIFOLIN] | 3.5%
60 | COc1cc(C(=O)[C@H](CO)c2ccc(O)c(OC)c2)ccc1O [(-)-EVOFOLIN B] | 18.2%
61 | O=C1C[C@@H](c2ccc(O)cc2)Oc2c1c(O)cc1oc3cc(O)c(O)cc3c21 [ANASTATIN B] | -1.1%
62 | COc1cc(C(C)=O)ccc1O [APOCYNIN] | 16.8%
63 | O=C1c2c(O)cc(O)cc2O[C@H](c2ccc(O)cc2)[C@H]1O [DIHYDROKAEMPFEROL] | 6%
64 | COc1cc([C@@H]2Oc3c(O)cc(C=O)cc3[C@H]2CO)ccc1O [HIEROCHIN C] | -1%
65 | O=C1C[C@@H](c2ccc(O)cc2)Oc2cc(O)cc(O)c21 [NARINGENIN] | 14.4%
66 | C[C@@H]1O[C@@H](OC[C@H]2O[C@@H](Oc3c(-c4ccc(O)c(O)c4)oc4cc(O)cc(O)c4c3=O)[C@H](O)[C@@H](O)[C@@H]2O)[C@H](O)[C@H](O)[C@H]1O [RUTIN] | 4.5%

Assay: cells
Settings: Mus musculus, B16-4A5, 72 h, read-out: INH
Remark: another data set of the same source
Description: Inhibition of theophylline-stimulated melanogenesis in mouse B16-4A5 cells at 10 uM after 72 hrs

Row | SMILES | inhibition at 10 µM
67 | COc1cc([C@H]2Oc3cc(O)cc(O)c3C(=O)[C@@H]2O)ccc1O | 10.6%
68 | COc1cc([C@@H](O)[C@@H](CO)c2ccc(O)c(OC)c2)ccc1O (relative stereo) | 21.3%
69 | COc1cc(C(=O)C(O)CO)ccc1O (single isomer, unassigned; (+)) | 24%
70 | O=C1c2c(O)cc(O)cc2O[C@@H](c2ccc(O)c(O)c2)[C@H]1O [(+)-EPITAXIFOLIN] | 6.9%
71 | O=C1c2c(O)cc(O)cc2O[C@H](c2ccc(O)c(O)c2)[C@H]1O [(+)-TAXIFOLIN] | 6.7%
72 | COc1cc(C(=O)[C@H](CO)c2ccc(O)c(OC)c2)ccc1O [(-)-EVOFOLIN B] | 16.4%
73 | O=C1C[C@@H](c2ccc(O)cc2)Oc2c1c(O)cc1oc3cc(O)c(O)cc3c21 [ANASTATIN B] | 19.5%
74 | COc1cc(C(C)=O)ccc1O [APOCYNIN] | 18.9%
75 | O=C1c2c(O)cc(O)cc2O[C@H](c2ccc(O)cc2)[C@H]1O [DIHYDROKAEMPFEROL] | -5.2%
76 | COc1cc([C@@H]2Oc3c(O)cc(C=O)cc3[C@H]2CO)ccc1O [HIEROCHIN C] | 27.6%
77 | O=C1C[C@@H](c2ccc(O)cc2)Oc2cc(O)cc(O)c21 [NARINGENIN] | 22.5%
78 | C[C@@H]1O[C@@H](OC[C@H]2O[C@@H](Oc3c(-c4ccc(O)c(O)c4)oc4cc(O)cc(O)c4c3=O)[C@H](O)[C@@H](O)[C@@H]2O)[C@H](O)[C@H](O)[C@H]1O [RUTIN] | 4.3%
